Data from patent US5032577A, “Peptidylaminodiols” (Abbott Laboratories, priority 1987, dated 1991).
Counter-ions that a name gives are not always drawn.

These compounds were tested against T1, human renal renin (Homo sapiens, UniProt P00797) (assay: Inhibition of human renal renin in vitro; angiotensin I formed measured by radioimmunoassay). Conditions: not given.
T1 construct: human renal renin, free from acid proteolytic activity; from tissue
T1 sequence (P00797 67-406): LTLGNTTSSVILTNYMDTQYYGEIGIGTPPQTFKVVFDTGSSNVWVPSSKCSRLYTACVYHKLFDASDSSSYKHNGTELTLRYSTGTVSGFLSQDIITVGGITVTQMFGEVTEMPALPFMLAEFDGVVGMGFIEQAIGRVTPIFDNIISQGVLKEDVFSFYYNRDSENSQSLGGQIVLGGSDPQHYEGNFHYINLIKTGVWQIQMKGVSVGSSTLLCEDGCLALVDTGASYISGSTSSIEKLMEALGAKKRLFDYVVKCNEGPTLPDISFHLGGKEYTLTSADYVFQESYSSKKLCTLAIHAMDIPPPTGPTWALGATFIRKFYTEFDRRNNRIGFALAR
Assay type: biochemical
With CC(C)C[C@H](O)[C@H](O)[C@H](CC1CCCCC1)NC(=O)[C@H](Cc1c[nH]cn1)NC(=O)[C@H](Cc1ccccc1)NC(=O)[C@@H]1CCCN1 [Example 77, H-Pro-Phe-His Amide of 2(S)-Amino-l-cyclohexyl-3(R), 4(S)-dihydroxy-6-methylheptane Acetic Acid Salt] the IC50 was 0.98 nM. Work on CCOC(=O)N[C@@H](Cc1ccccc1)C(=O)N[C@@H](CC(C)C)C(=O)N[C@@H](CC1CCCCC1)[C@@H](O)[C@@H](O)CC [Example 47, Ethoxycarbonyl-Phe-Leu Amide of 2(S)-Amino-1-cyclohexyl-3(R),4(S)-dihydroxyhexane] yielded an IC50 of 1 nM. Work on CC(C)C[C@H](NC(=O)[C@H](Cc1ccccc1)NC(=O)OCCCOC(=O)CN)C(=O)N[C@@H](CC1CCCCC1)[C@@H](O)[C@@H](O)CC(C)C [Example 93, H-Gly-Ester of the Resultant Compound of Example 91 (at 3-Hydroxypropyloxy Group)] yielded an IC50 of 0.55 nM. For CC(C)C[C@@H](O)[C@H](O)[C@H](CC1CCCCC1)NC(=O)[C@H](Cc1c[nH]cn1)NC(=O)[C@H](Cc1ccccc1)NC(=O)OC(C)(C)C [Example 17, Boc-Phe-His Amide of 2(S)-Amino-l-cyclohexyl-3(R),4(R)-dihydroxy-6-methylheptane], the IC50 was 35 nM. CC(C)C[C@H](O)[C@H](O)[C@H](CC1CCCCC1)NC(=O)[C@H](Cc1c[nH]cn1)NC(=O)[C@H](CCc1ccccc1)NC(=O)C(C)C [Example 108, Isobutyryl-Homo-Phe-His Amide of 2(S)-Amino-l-cyclohexyl-3(R),4(S)-dihydroxy-6-methylheptane] was tested, and the IC50 was 0.55 nM. For COc1ccc(C[C@H](NC(=O)CCCCCN)C(=O)N[C@@H](Cc2c[nH]cn2)C(=O)N[C@@H](CC2CCCCC2)[C@@H](O)[C@@H](O)CC(C)C)cc1 [Example 173, 6-Aminohexanoyl-(4-methoxy)Phe-His Amide of (2S, 3R, 4S)-2-Amino-1-cyclohexyl-3,4-dihydroxy-6-methylheptane Diacetate Salt], the IC50 was 0.9 nM. With CC(C)C[C@H](O)[C@H](O)[C@H](CC1CCCCC1)NC(=O)[C@H](Cc1c[nH]cn1)NC(=O)[C@H](Cc1ccccc1)NC(=O)CC(C)(C)NC(=O)OCc1ccccc1 [Example 74, Cbz-[(β,β-di-Me)-β-Ala]-Phe-His Amide of 2(S)-Amino-1-cyclohexyl-3(R),4(S)-dihydroxy-6-methylheptane] the IC50 was 0.7 nM. For CC(C)C[C@H](O)[C@H](O)[C@H](CC1CCCCC1)NC(=O)[C@H](Cc1c[nH]cn1)NC(=O)CCc1ccccc1 [Example 28, Pp-His Amide of 2(S)-Amino-l-cyclohexyl-3(R),4(S)-dihydroxy-6-methylheptane], the IC50 was 80 nM. Work on CC(C)C[C@H](NC(=O)[C@H](Cc1ccccc1)NC(=O)OCC(O)CO)C(=O)N[C@@H](CC1CCCCC1)[C@@H](O)[C@@H](O)CC(C)C (stereo partly drawn) [Example 97, 2(R,S),3-Dihydroxypropyloxycarbonyl-Phe-Leu Amide of 2(S) -Amino-1-cyclohexyl-3(R),4(S)-dihydroxy-6-methylheptane] yielded an IC50 of 0.3 nM. In the case of COc1ccc(C[C@H](NC(=O)CCCCC(N)C(=O)O)C(=O)N[C@@H](CC(C)C)C(=O)N[C@@H](CC2CCCCC2)[C@@H](O)[C@@H](O)CC(C)C)cc1 (stereo partly drawn) [Example 194, 6-Amino-6-carboxyhexanoyl-(4-OMe)Phe-Leu Amide of 2(S)-Amino-l-cyclohexyl-3(R),4(S)-dihydroxy-6-methylheptane], the IC50 is reported as 2.3 nM. In the case of CC(C)C[C@H](NC(=O)[C@H](Cc1ccccc1)NCCC#N)C(=O)N[C@@H](CC1CCCCC1)[C@@H](O)[C@@H](O)CC(C)C [Example 58, [N-(2-Cyanoethyl)]Phe-Leu Amide of 2(S)-Amino-1-cyclohexyl-3(R),4(S)-dihydroxy-6-methylheptane], the IC50 is reported as 7 nM. With CC(C)C[C@H](O)[C@H](O)[C@H](CC1CCCCC1)NC(=O)[C@H](Cc1c[nH]cn1)NC(=O)[C@H](Cc1ccccc1)NC(=O)[C@@H](C)NC(=O)OCc1ccccc1 [Example 69, Cbz-D-Ala-Phe-His Amide of 2(S)-Amino-l-cyclohexyl-3(R), 4(S)-dihydroxy-6-methylheptane] the IC50 was 0.81 nM. Compound CC(C)CC[C@H](O)[C@H](O)[C@H](CC1CCCCC1)NC(=O)[C@H](Cc1c[nH]cn1)NC(=O)[C@H](Cc1ccccc1)NC(=O)CC(C)(C)C [Example 43, TBA-Phe-His Amide of 2(S)-Amino-1-cyclohexyl-3(R),4(S)-dihydroxy-7-methyloctane] has an IC50 of 5 nM. Compound CC(C)C[C@H](O)[C@H](O)[C@H](CC1CCCCC1)NC(=O)[C@H](Cc1c[nH]cn1)NC(=O)[C@H](Cc1ccccc1)NC(=O)c1ccc[nH]1 [Example 89, (Pyrrol-2-yl-carbonyl)-Phe-His Amide of 2(S)-Amino-1-cyclohexyl-3(R),4(S)-dihydroxy-6-methylheptane] has an IC50 of 1 nM. CC(C)C[C@H](NC(=O)[C@H](Cc1ccccc1)NC(=O)Cc1c[nH]cn1)C(=O)N[C@@H](CC1CCCCC1)[C@@H](O)[C@@H](O)CC(C)C [Example 88, (Imidazol-4-yl-acetyl)-Phe-Leu Amide of 2(S)-Amino-1-cyclohexyl-3(R),4(S)-dihydroxy-6-methylheptane] showed an IC50 of 0.6 nM. With CC(C)C[C@H](O)[C@H](O)[C@H](CC1CCCCC1)NC(=O)[C@H](Cc1c[nH]cn1)NC(=O)C(CC(=O)N1CCOCC1)Cc1ccccc1 (single isomer, unassigned) [Example 143] the IC50 was 0.3 nM. In the case of C=CCOC(=O)N[C@@H](Cc1ccccc1)C(=O)N[C@@H](CC(C)C)C(=O)N[C@@H](CC1CCCCC1)[C@@H](O)[C@@H](O)CC(C)C [Example 90, Allyloxycarbonyl-Phe-Leu Amide of 2(S)-Amino-l-cyclohexyl-3(R),4(S)-dihydroxy-6-methylheptaine], the IC50 is reported as 0.4 nM. For CC(C)C[C@H](O)[C@H](O)[C@H](CC1CCCCC1)NC(=O)[C@H](Cc1c[nH]cn1)NC(=O)C(Cc1ccccc1)Cc1ccccc1 [Example 27, Dba-His Amide of 2(S)-Amino-l-cyclohexyl-3(R),4(S)-dihydroxy-6-methylhectane], the IC50 was 7 nM. CC(C)C[C@H](O)[C@H](O)[C@H](CC1CCCCC1)NC(=O)[C@H](Cc1c[nH]cn1)NC(=O)[C@H](Cc1ccccc1)NC(=O)CO [Example 103, Hydroxyacetyl-Phe-His Amide of 2(S)-Amino-l-cyclohexyl-3(R),4(S)-dihydroxy-6-methylheptane] showed an IC50 of 1 nM. For CCOC(=O)N[C@@H](Cc1ccccc1)C(=O)N[C@@H](CC(C)C)C(=O)N[C@@H](CC1CCCCC1)[C@@H](O)[C@@H](O)CC(C)C [Example 36, Ethoxycarbonyl-phe-Leu Amide of 2(S)-Amino-cyclohexyl-3(R),4(S)-dihydroxy-6-methylheptane], the IC50 was 0.4 nM. In the case of CC(C)C[C@H](O)[C@H](O)[C@H](CC1CCCCC1)NC(=O)[C@H](Cc1c[nH]cn1)NC(=O)[C@H](Cc1ccccc1)NC(=O)C1CCN(C(=O)OCc2ccccc2)CC1 [Example 67, Cbz-Isonipectoyl-Phe-His Amide of 2(S)-Amino-l-cyclohexyl-3(R),4(S)-dihydroxy-6-methylheptane], the IC50 is reported as 0.8 nM. With CC(C)C[C@H](O)[C@H](O)[C@H](CC1CCCCC1)NC(=O)[C@H](Cc1c[nH]cn1)NC(=O)[C@H](Cc1ccccc1)NC(=O)[C@@H](C)N [Example 70, H-D-Ala-Phe-His Amide of 2(S)-Amino-l-cyclohexyl-3(R), 4(S)-dihydroxy-6-methylheptane Diacetic Acid Salt] the IC50 was 2.5 nM. With CC(C)C[C@H](O)[C@H](O)[C@H](CC1CCCCC1)NC(=O)[C@H](Cc1c[nH]cn1)NC(=O)[C@@H](N)Cc1ccccc1 [Example 84, Phe-His Amide of 2(S)-Amino-l-cyclohexyl-3(R),4(S)-dihydroxy-6-methylheptane] the IC50 was 10 nM.

Same assay, conditions: human renal renin free from acid proteolytic activity, renin substrate human angiotensinogen, 37° C., pH 6.0
CC(C)C[C@H](O)[C@H](O)[C@H](CC1CCCCC1)NC(=O)[C@H](C)NC(=O)[C@H](Cc1ccccc1)NC(=O)OC(C)(C)C [Example 33, Boc-phe-Ala Amide of 2(S)-Amino-l-cyclohexyl-3(R),4(S)-dihydroxy-6-methylheptane] gave an IC50 of 5 nM. Compound CC(C)C[C@H](O)[C@H](O)[C@H](CC1CCCCC1)NC(=O)[C@H](Cc1ccccc1)NC(=O)[C@H](Cc1ccccc1)NC(=O)OC(C)(C)C [Example 34, Boc-Phe-Phe Amide of 2(S)-Amino-l-cyclohexyl-3(R),4(S)-dihYdroxy-6-methYlheptane] has an IC50 of 1.5 nM. Compound CC(C)(C)OC(=O)N[C@@H](Cc1ccccc1)C(=O)N[C@@H](Cc1c[nH]cn1)C(=O)N[C@@H](CC1CCCCC1)[C@@H](O)CO [Example 6, Boc-Phe-His Amides of 3(S)-Amino-4-cyclohexyl-1,2(R)-dihydroxybutane] has an IC50 of 50 nM. CC(C)C[C@H](O)[C@@H](O)[C@H](CC1CCCCC1)NC(=O)[C@H](Cc1c[nH]cn1)NC(=O)[C@H](Cc1ccccc1)NC(=O)OC(C)(C)C [Example 16, Boc-Phe-His Amide of 2(S)-Amino-l-cyclohexyl-3(S),4(S)-dihydroxy-6-methylheptane] showed an IC50 of 70 nM. For CC(C)C[C@H](NC(=O)OC(C)(C)C)C(=O)N[C@@H](Cc1c[nH]cn1)C(=O)N[C@@H](CC1CCCCC1)[C@@H](O)[C@@H](O)CC(C)C [Example 31, Boc-Leu-His Amide of 2(S)-Amino-l-cyclohexyl-3(R),4(S)-dihydroxy-6-methylheptane], the IC50 was 1 nM. CC(C)C[C@@H](O)[C@@H](O)[C@H](CC1CCCCC1)NC(=O)[C@H](Cc1c[nH]cn1)NC(=O)[C@H](Cc1ccccc1)NC(=O)OC(C)(C)C [Example 18, Boc-Phe-His Amide of 2(S)-Amino-l-cyclohexyl-3(S),4(R)-dihydroxy-6-methylheptane] was tested, and the IC50 was 95 nM.
